Measurements as given in article PMC4544722 (Drug Design, Development and Therapy, 2015).

Assay: everted gut sac model in vitro
Settings: jejunum, ECH 0.09 mg/mL; verapamil 0.2 mg/mL, borneol 0.1 mg/mL, pennyroyal 0.1 mL/mL, clove oil 0.1 mL/mL

CC1(C)C2CCC1(C)C(O)C2 (stereo not shown) [borneol]
effect on ECH absorption parameters F and Papp versus control: neither borneol nor pennyroyal had significant absorption enhancing effect
